Assay results taken from US11701433B2, “Complexes for delivery of antigenic peptides” (The Regents of the University of Michigan, priority 2017, dated 2023).

Key:
STING = assay: Immunoblot of STING protein level in SOX2-expressing cells treated with inhibitors of autophagy; format: cell-based; conditions: HEK-293T and UMSCC22b cells
Method: Cell culture: UMSCC22b and UMSCC47 were obtained from the U-M Head and Neck Cancer SPORE. PCI-13 was obtained from the University of Pittsburgh Head and Neck Cancer SPORE. HEK-293T was purchased from ATCC. The human HNSCC cells and HEK293T cells were maintained in complete DMEM medium. The MOC2-E6/E7 cells were obtained from Dr. David Mooney at Harvard University, the parental and derivative cell lines were cultured in 30% F12 nutrient mix (Thermo Fisher Scientific, Waltham, Mass.), 5% FBS, puromycin […], insulin (4 mg/ml), hydrocortisone (200 ug/ml), EGF (100 ug/ml) and penicillin (100 U/ml) and streptomycin […]. THP1-blue ISG cells (Cat. thp-isg, InvivoGen, San Diego, Calif.) were cultured in RPMI media supplemented with 10% FBS, 1% penicillin, streptomycin, Normocin and Zeocin. NK cells, T cells, and tumor-infiltrating lymphocytes were cultured in complete RPMI 1640 medium. Peripheral blood monocytes were separated from healthy volunteers using Ficoll-Paque gradient. Primary human NK and CD8^+ T cells were separated using a NK cell enrichment kit and a CD8^+ T cell enrichment kit, respectively (Cat. 19055 and Cat. 19053, […] Technologies Inc, Cambridge, Mass.). All cells were cultured in 37° C. incubator with 5% CO2. […] Tumors were measured every other day using a caliper, and the tumor volume was calculated as 0.52×length×width^2. […]

MOC2-E6/E7 tumors = assay: Real time PCR of Ifna4 and Ifnb1 in tumor homogenates; format: in vivo, C57BL/6 mice; conditions: R9F/Q15L study, tumors harvested 25 days post-implantation
Method: Experimental animals and treatments: Female C57BL6 mice, aged 6-8 weeks, were purchased from the Jackson Laboratory, and maintained in a pathogen-free facility at the University of Michigan. All animal work were done in accordance with and approved by the Institutional Animal Care & Use Committee (IACUC) at the University of Michigan, Ann Arbor. Syngeneic squamous cell carcinoma cells were implanted subcutaneously at the neck. Tumors were measured every other day using a caliper, and the tumor volume was calculated as 0.52×length×width^2. […] To test the efficacy of the vaccine formulations, MOC2-E6/E7 cells were implanted subcutaneously on the back of the neck on day 0. […] Anti-PD-L1 (100 μg/100 μl) (clone B7H1, BioXCell, West Lebanon, N.H.) was administered through intraperitoneal injection on day 1 and 4 after each vaccination.

| Compound | SOX2-induced decrease in STING protein level (STING) | production of Ifna4 and Ifnb1 in tumors (MOC2-E6/E7 tumors) |
| --- | --- | --- |
| CO/C1=C\C(C)=C\[C@@H](C)[C@@H](O)[C@@H](C)C/C(C)=C/C=C/[C@H](OC)[C@@H]([C@@H](C)[C@@H](O)[C@H](C)[C@@]2(O)C[C@@H](O)[C@H](C)[C@@H](C(C)C)O2)OC1=O [bafilomycin A] | partially restored |  |
| CCN(CC)CCCC(C)Nc1ccnc2cc(Cl)ccc12 (stereo not drawn) [chloroquine] | partially restored |  |
| cyclic GMP-AMP [cGAMP] |  | modest effect |
